In patent publication US20100256196A1, “Biomarkers for Atherosclerosis” (IKFE, priority 2008, published 2010):

How the values were obtained:
MIF = settings: six week treatment, eight non-diabetic patients with obesity; cited from earlier work
[1] = test system: patients with type 2 diabetes and established atherosclerosis; experiment: Clinical and biochemical observation parameters, double-blind placebo-controlled study, 4 weeks add-on treatment; assay type: in vivo, human; settings: mean ± SD; for Glucose: fasting; for HOMAIR: insulin resistance score; for IL-6 / MIF / MMP-9: plasma protein; for Adiponectin / Angiotensin II / Complement factor C3 / Insulin / Intact proinsulin / P-seclectin / sCD40L: plasma
[2] = test system: NFκB and NFκB-modulated cytokines in circulating peripheral mononuclear cells; experiment: mRNA expression in circulating mononuclear cells (CD14+ monocytes/macrophages), calibrator-normalized relative quantification by LightCycler PCR; assay type: in vivo, human; settings: normalized ratio, reference gene β-actin, mean ± SD
Description: Blood for the measurement of fasting glucose, MMP-9, and hsCRP was taken at baseline and after 3, 7, 10, 14 and 28 days of study treatment. Blood for assessment of the mRNA expression profile of circulating mononuclear cells as well as for assessment of circulating plasma levels of HbAlc, Insulin, Intact Proinsulin, Adiponectin, IL-6, sCD40L, P-Selectin, MIF, Angiotensin II, complement factor 3, and blood lipids were obtained at baseline and at the end of the study. Insulin resistance was calculated using the HOMAIR score at baseline and study endpoint as published previously (29, 30).
Isolation of MNC from whole blood was performed as a density gradient centrifugation by means of the ACCUSPIN System-HISTOPAQUE-1077 (Sigma-Aldrich Chemie GmbH, Steinheim, Germany). The isolation of macrophages and monocytes from the collected cells was performed by MACS magnetic cell sorting with CD14 MicroBeads (human) (Miltenyi Biotec GmbH, Bergisch Gladbach, Germany). The CD14 positive (CD14+) cells (macrophages and monocytes) were first magnetically labeled with MACS CD14 MicroBeads. The cell suspension was loaded on a MS MACS Column which was placed in the magnetic field of a MiniMACS Separator. The magnetically labeled CD14+ cells were retained in the column and separated from the unlabelled cell fraction.
The mRNA isolation from macrophages and monocytes was performed with the High Pure RNA Isolation Kit (Roche Applied Science, Penzberg, Germany). The cells were first lysed and the intact and undegraded RNA was adsorbed to a glass fibre fleece. Simultaneously, RNAses were inactivated. Furthermore, residues of contaminating DNA were digested and the RNA was purified from salts, proteins and other impurities. Purity of the isolated mRNA was assessed by real-time PCR (LightCycler II, Roche Diagnostics, Mannheim, Germany). The transcription of mRNA in cDNA was performed on a thermocycler (Biozym Diagnostik GmbH, Oldendorf, Germany) according to a standardized protocol (‘Transcriptor First Strand cDNA Synthesis Kit’, Instruction Manual Version 1, 2004, Roche Applied Science, Penzberg, Germany).
Sequence specific primers were designed by TIB MOLBIOL (Syntheselabor GmbH, Berlin, Germany) to amplify the gene sequences of Rel-A, p105, IκB-α, IκB-β and IL-6. The primers for TNF-α were taken from “Rapid Cycle Real-Time PCR Methods and Applications Quantification” (31). The primers for MIF and MMP-9 were reproduced from previous reports (12, 32). A list of the primers used for the quantification experiments, the primer-specific PCR protocols and the specific amplification product melting points are provided in Table 1. An additional agarose gel electrophoresis assay was performed to verify the correct length of the amplification products.
The RNA quantification in this study, was performed by means of a calibrator-normalized relative quantification method based on the LightCycler II system (Roche Diagnostics, Mannheim, Germany), where quantification of a target and a reference gene is a function of PCR efficiency and the sample crossing point. The sample crossing point is the amplification cycle during an amplification assay, at which the fluorescence of a probe rises above background fluorescence. This occurs usually at the second derivative maximum (fastest change in fluorescence). […] In these experiments, β-actin is the most abundant protein in eukaryotic cells with constant expression (33). […] The principle of this method is the determination of the relative amount of the target gene and the reference gene for each sample and for the calibrator. […] All experiments were performed in triple replications.
Data are presented as arithmetic mean±standard deviation (SD) for continuous variables or mean±SEM for percent changes from baseline and as the number/proportion of patients for categorical variables.

[3] = in vivo; cited from earlier work
[4] = endpoint, after 4 weeks 45 mg pioglitazone add-on
[5] = endpoint, after 4 weeks of pioglitazone

CN(C)C(=N)N=C(N)N [metformin]
Plasma concentration of MIF and transcription of MIF mRNA in mononuclear cells (MIF): reduced

CCc1ccc(CCOc2ccc(CC3SC(=O)NC3=O)cc2)nc1 (stereo not drawn) [pioglitazone]
BMI [1, 4]: 31.4 ± 4.5 kg/m^2 | Diastolic blood pressure [1, 4]: 80 ± 11 mmHg | HDL cholesterol [1, 4]: 1.26 ± 0.26 mmol/L | HbA1c [1, 4]: 6.8 ± 0.9% | LDL cholesterol [1, 4]: 2.52 ± 0.76 mmol/L | Systolic blood pressure [1, 4]: 137 ± 18 mmHg | Total Cholesterol [1, 4]: 4.78 ± 1.09 mmol/L | hsCRP [1, 4]: 1.9 ± 1.7 mg/L | sICAM [1, 4]: 319 ± 86 µg/L | sVCAM [1, 4]: 943 ± 452 µg/L | Glucose [1, 4]: 122 ± 35 mg/dL | Glucose ([1]; pioglitazone arm, baseline): 142 ± 40 mg/dL | HOMAIR [1, 4]: 3.9 ± 2.6 | HOMAIR ([1]; pioglitazone arm, baseline): 5.9 ± 4.4 | BMI ([1]; pioglitazone arm, baseline): 31.0 ± 4.3 kg/m^2 | Diastolic blood pressure ([1]; pioglitazone arm, baseline): 83 ± 11 mmHg | HDL cholesterol ([1]; pioglitazone arm, baseline): 1.18 ± 0.24 mmol/L | HbA1c ([1]; pioglitazone arm, baseline): 7.0 ± 1.1% | LDL cholesterol ([1]; pioglitazone arm, baseline): 2.46 ± 0.80 mmol/L | Systolic blood pressure ([1]; pioglitazone arm, baseline): 144 ± 15 mmHg | Total Cholesterol ([1]; pioglitazone arm, baseline): 4.63 ± 0.99 mmol/L | hsCRP ([1]; pioglitazone arm, baseline): 2.9 ± 1.7 mg/L | sICAM ([1]; pioglitazone arm, baseline): 326 ± 90 µg/L | sVCAM ([1]; pioglitazone arm, baseline): 915 ± 409 µg/L | IL-6 [1, 4]: 3.2 ± 0.1 ng/L | MIF [1, 4]: 9.6 ± 3.5 µg/L | MMP-9 [1, 4]: 284 ± 101 µg/L | IL-6 ([1]; pioglitazone arm, baseline): 3.3 ± 0.5 ng/L | MIF ([1]; pioglitazone arm, baseline): 10.4 ± 5.3 µg/L | MMP-9 ([1]; pioglitazone arm, baseline): 344 ± 118 µg/L | Adiponectin [1, 4]: 22.1 ± 9.1 µg/mL | Angiotensin II [1, 4]: 8.0 ± 8.8 µg/L | Complement factor C3 [1, 4]: 1.5 ± 0.3 g/L | Insulin [1, 4]: 12 ± 7 μU/ml | Intact proinsulin [1, 4]: 19 ± 17 pmol/L | P-seclectin [1, 4]: 93 ± 22 µg/L | sCD40L [1, 4]: 1.1 ± 1.1 µg/L | Adiponectin ([1]; pioglitazone arm, baseline): 8.7 ± 3.5 µg/mL | Angiotensin II ([1]; pioglitazone arm, baseline): 10.2 ± 9.2 µg/L | Complement factor C3 ([1]; pioglitazone arm, baseline): 1.6 ± 0.4 g/L | Insulin ([1]; pioglitazone arm, baseline): 17 ± 10 μU/ml | Intact proinsulin ([1]; pioglitazone arm, baseline): 30 ± 37 pmol/L | P-seclectin ([1]; pioglitazone arm, baseline): 95 ± 20 µg/L | sCD40L ([1]; pioglitazone arm, baseline): 1.6 ± 1.8 µg/L | IL-6 mRNA expression [2, 5]: 1.05 ± 0.46 | IκB-β mRNA expression [2, 5]: 3.30 ± 2.41 | MIF mRNA expression [2, 5]: 0.84 ± 0.31 | MMP-9 mRNA expression [2, 5]: 1.48 ± 1.18 | RelA (p65 subunit of NF-κB) mRNA expression [2, 5]: 0.95 ± 0.44 | TNFα mRNA expression [2, 5]: 1.70 ± 0.93 | p105 (p50 subunit of NF-κB) mRNA expression [2, 5]: 1.33 ± 0.46 | IL-6 mRNA expression ([2]; pioglitazone arm, baseline): 1.13 ± 0.52 | IκB-β mRNA expression ([2]; pioglitazone arm, baseline): 3.17 ± 2.05 | MIF mRNA expression ([2]; pioglitazone arm, baseline): 0.98 ± 0.40 | MMP-9 mRNA expression ([2]; pioglitazone arm, baseline): 2.29 ± 2.68 | RelA (p65 subunit of NF-κB) mRNA expression ([2]; pioglitazone arm, baseline): 1.20 ± 0.74 | TNFα mRNA expression ([2]; pioglitazone arm, baseline): 1.88 ± 1.20 | p105 (p50 subunit of NF-κB) mRNA expression ([2]; pioglitazone arm, baseline): 1.63 ± 0.80

Cc1c(C)c2c(c(C)c1O)CCC(C)(COc1ccc(CC3SC(=O)NC3=O)cc1)O2 (stereo not drawn) [troglitazone]
Reason for being taken from the market [3]: hepatotoxiciy
